Target: human F508del-CFTR (Homo sapiens, UniProt P13569, DEL508-508)
Assay: F508del-CFTR cell surface expression (corrector activity), DiscoveRx ß-galactosidase complementation chemiluminescence assay in recombinant U2OS cell line;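 further: U2OS cells co-expressing ProLink-tagged F508del-CFTR and a membrane-anchored enzyme acceptor, where more surface CFTR restores β-galactosidase activity measured by chemiluminescence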
Conditions: for EC50: EC50, F508del-CFTR cell surface expression; for Emax: U2OS
[1] = U2OS cells, 16h compound incubation, geomean values
[2] = in relation to Emax of corrector lumacaftor (=100%), arithmetic mean values
[3] = U2OS cells, 16h compound incubation, geomean of several measurements
[4] = in relation to the Emax of the corrector lumacaftor (=100%), U2OS cells, 16h compound incubation, arithmetic mean
[5] = U2OS cell line, 16h compound incubation, geomean values
[6] = in relation to the Emax of the corrector lumacaftor (=100%), U2OS cell line, 16h compound incubation, arithmetic mean values

Chain of human F508del-CFTR (P13569 with tags, fused parts or gaps DEL508-508): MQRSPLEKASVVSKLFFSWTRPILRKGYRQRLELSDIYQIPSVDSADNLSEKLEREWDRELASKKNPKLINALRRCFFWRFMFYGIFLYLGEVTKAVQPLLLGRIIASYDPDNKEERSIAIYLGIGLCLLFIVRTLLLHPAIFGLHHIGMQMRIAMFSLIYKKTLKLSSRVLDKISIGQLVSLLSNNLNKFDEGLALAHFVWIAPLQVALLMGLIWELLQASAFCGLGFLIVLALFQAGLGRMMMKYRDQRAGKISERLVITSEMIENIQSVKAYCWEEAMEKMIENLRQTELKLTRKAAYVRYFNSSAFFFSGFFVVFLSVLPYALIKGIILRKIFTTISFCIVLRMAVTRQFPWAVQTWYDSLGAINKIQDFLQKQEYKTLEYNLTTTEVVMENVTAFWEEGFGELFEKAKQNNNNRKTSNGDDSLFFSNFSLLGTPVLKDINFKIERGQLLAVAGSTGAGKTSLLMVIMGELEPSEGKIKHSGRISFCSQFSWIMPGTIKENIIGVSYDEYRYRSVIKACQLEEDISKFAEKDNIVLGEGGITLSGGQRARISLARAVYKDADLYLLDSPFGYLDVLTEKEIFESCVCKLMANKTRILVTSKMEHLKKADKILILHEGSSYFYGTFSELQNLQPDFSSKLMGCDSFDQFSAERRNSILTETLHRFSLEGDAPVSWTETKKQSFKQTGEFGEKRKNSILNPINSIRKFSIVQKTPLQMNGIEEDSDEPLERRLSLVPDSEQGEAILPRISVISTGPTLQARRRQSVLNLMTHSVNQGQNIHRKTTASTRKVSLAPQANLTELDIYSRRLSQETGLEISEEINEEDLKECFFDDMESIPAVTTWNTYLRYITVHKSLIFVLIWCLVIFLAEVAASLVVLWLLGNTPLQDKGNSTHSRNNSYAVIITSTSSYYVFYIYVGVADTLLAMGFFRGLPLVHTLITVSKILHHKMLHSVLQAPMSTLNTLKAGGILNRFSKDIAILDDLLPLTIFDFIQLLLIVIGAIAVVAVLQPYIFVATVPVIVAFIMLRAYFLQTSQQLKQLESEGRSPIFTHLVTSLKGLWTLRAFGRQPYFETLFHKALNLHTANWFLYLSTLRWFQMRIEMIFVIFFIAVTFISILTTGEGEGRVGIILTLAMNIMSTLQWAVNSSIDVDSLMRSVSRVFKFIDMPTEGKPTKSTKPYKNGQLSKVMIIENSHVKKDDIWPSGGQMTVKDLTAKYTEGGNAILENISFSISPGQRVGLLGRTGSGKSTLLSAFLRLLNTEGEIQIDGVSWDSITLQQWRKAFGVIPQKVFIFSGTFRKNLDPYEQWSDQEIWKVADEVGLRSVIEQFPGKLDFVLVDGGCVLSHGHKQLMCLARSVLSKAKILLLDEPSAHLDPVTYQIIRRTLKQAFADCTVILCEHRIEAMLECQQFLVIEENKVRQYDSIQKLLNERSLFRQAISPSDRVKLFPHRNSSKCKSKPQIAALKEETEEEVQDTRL

EC50 [1] [nM]	Emax [2] [%]	SMILES	EC50 [5] [nM]	Emax [6] [%]	also measured
234	236	CC(C)C[C@H]1C(=O)N(C)C2(CC2)C(=O)N[C@H](Cc2ccccc2)COc2cnc3ccccc3c2C(=O)N[C@H](C(=O)NCCc2ccc(-n3nccn3)cc2)CC(=O)N1C [Example 454, (3′S,7′S,13′R)-N-(4-(2H-1,2,3-triazol-2-yl)phenethyl)-13′-benzyl-7′-isobutyl-6′,9′-dimethyl-1′,5′,8′,11′-tetraoxo-2′,3′,4′,5′,6′,7′,8′,9′,11′,12′,13′,14′-dodecahydro-1′H-spiro[cyclopropane-1,10′-[1]oxa[4,7,10,14]tetraazacycloheptadecino[17,16-c]quinoline]-3′-carboxamide]			
339	288	Cc1cc(CCNC(=O)[C@@H]2CC(=O)N(C)[C@@H](CC(C)C)C(=O)N3CCN(CC(C)C)C[C@H]3C(=O)N[C@H](Cc3ccccc3)COc3ccc4nc(C)oc4c3C(=O)N2)on1 [Example 621, (8S,12S,18aS,21R)-21-benzyl-12,17-diisobutyl-4,11-dimethyl-N-(2-(3-methylisoxazol-5-yl)ethyl)-6,10,13,19-tetraoxo-6,7,8,9,10,11,12,13,16,17,18,18a,19,20,21,22-hexadecahydro-15H-oxazolo[4′,5′:5,6]benzo[1,2-p]pyrazino[2,1-f][1]oxa[4,7,10,14]tetraazacycloheptadecine-8-carboxamide]			
189	321	CC(C)C[C@H]1C(=O)N2CCCC[C@@H]2C(=O)N[C@H](Cc2ccccc2)COc2cnc3c(F)cccc3c2C(=O)N[C@H](C(=O)NCCc2cc(C3CC3)no2)CC(=O)N1C [Example 499, (9S,13S,19aR,22R)-22-benzyl-N-(2-(3-cyclopropylisoxazol-5-yl)ethyl)-3-fluoro-13-isobutyl-12-methyl-7,11,14,20-tetraoxo-7,8,9,10,11,12,13,14,17,18,19,19a,20,21,22,23-hexadecahydro-16H-pyrido[2′,11:6,7][1]oxa[4,7,10,14]tetraazacycloheptadecino[17,16-c]quinoline-9-carboxamide]			

The remaining lines, values behind:

SMILES	EC50 [1] [nM]	Emax [2] [%]	EC50 [5] [nM]	Emax [6] [%]	also measured
COc1cccc(CCNC(=O)[C@@H]2CC(=O)N(C)[C@@H](CC(C)C)C(=O)N3CCCC[C@@H]3C(=O)N[C@H](Cc3ccccc3)COc3ccc4ccccc4c3C(=O)N2)c1 [Example 603, (4aR,7R,18S,22S)-7-benzyl-22-isobutyl-N-(3-methoxyphenethyl)-21-methyl-5,16,20,23-tetraoxo-2,3,4,4a,5,6,7,8,16,17,18,19,20,21,22,23-hexadecahydro-1H-naphtho[1,2-p]pyrido[2,1-f][1]oxa[4,7,10,14]tetraazacycloheptadecine-18-carboxamide]	205	301			
COc1cc(CCNC(=O)[C@@H]2CC(=O)N(C)[C@@H](CC(C)C)C(=O)N(C)[C@H](CC(F)F)C(=O)N[C@H](Cc3ccccc3)COc3ccc4ncc(F)cc4c3C(=O)N2)on1 [Example 819, (3S,7S,10R,13R)-13-benzyl-10-(2,2-difluoroethyl)-20-fluoro-7-isobutyl-N-(2-(3-methoxyisoxazol-5-yl)ethyl)-6,9-dimethyl-1,5,8,11-tetraoxo-1,2,3,4,5,6,7,8,9,10,11,12,13,14-tetradecahydro-[1]oxa[4,7,10,14]tetraazacycloheptadecino[16,17-f]quinoline-3-carboxamide]					EC50 [3]: 276 nM; Emax [4]: 431%
COc1cc(CCNC(=O)[C@@H]2CC(=O)N(C)[C@@H](CC(C)C)C(=O)N(C)C3(CC(F)(F)C3)C(=O)N[C@H](Cc3ccccc3)COc3ccc4cnc(C)cc4c3C(=O)N2)on1 [Example 953, (3′S,7′S,13′R)-13′-benzyl-3,3-difluoro-7′-isobutyl-N-(2-(3-methoxyisoxazol-5-yl)ethyl)-6′,9′,20′-trimethyl-1′,5′,8′,11′-tetraoxo-2′,3′,4′,5′,6′,7′,8′,9′,11′,12′,13′,14′-dodecahydro-1′H-spiro[cyclobutane-1,10′-[1]oxa[4,7,10,14]tetraazacycloheptadecino[16,17-f]isoquinoline]-3′-carboxamide]					EC50 [3]: 268 nM; Emax [4]: 394%
CC(C)C[C@H]1C(=O)N2CCOC[C@@H]2C(=O)N[C@H](Cc2ccccc2)COc2ccc3ccccc3c2C(=O)N[C@H](C(=O)NCCc2noc(C3CC3)n2)CC(=O)N1C [Example 45, (4aR,7R,18S,22S)-7-benzyl-N-(2-(5-cyclopropyl-1,2,4-oxadiazol-3-yl)ethyl)-22-isobutyl-21-methyl-5,16,20,23-tetraoxo-1,2,4,4a,5,6,7,8,16,17,18,19,20,21,22,23-hexadecahydronaphtho[1,2-p][1,4]oxazino[3,4-f][1]oxa[4,7,10,14]tetraazacycloheptadecine-18-carboxamide]			682	324	
CC(C)C[C@H]1C(=O)N(C)C2(CC2)C(=O)N[C@H](Cc2ccccc2)COc2cnc3ccc(F)cc3c2C(=O)N[C@H](C(=O)NCCc2noc(C3CC3)n2)CC(=O)N1C [Example 144, (3′S,7′S,13′R)-13′-benzyl-N-(2-(5-cyclopropyl-1,2,4-oxadiazol-3-yl)ethyl)-20′-fluoro-7′-isobutyl-6′,9′-dimethyl-1′,5′,8′,11′-tetraoxo-2′,3′,4′,5′,6′,7′,8′,9′,11′,12′,13′,14′-dodecahydro-1′H-spiro[cyclopropane-1,10′-[1]oxa[4,7,10,14]tetraazacycloheptadecino[17,16-c]quinoline]-3′-carboxamide]			211	327	
CC(C)C[C@H]1C(=O)N2CCOC[C@@H]2C(=O)N[C@H](Cc2ccccc2)COc2ccc3ccccc3c2C(=O)N[C@H](C(=O)NCCc2cccc(OC(F)F)c2)CC(=O)N1C [Example 371, (4aR,7R,18S,22S)-7-benzyl-N-(3-(difluoromethoxy)phenethyl)-22-isobutyl-21-methyl-5,16,20,23-tetraoxo-1,2,4,4a,5,6,7,8,16,17,18,19,20,21,22,23-hexadecahydronaphtho[1,2-p][1,4]oxazino[3,4-f][1]oxa[4,7,10,14]tetraazacycloheptadecine-18-carboxamide]			226	180	
COc1cc(CCNC(=O)[C@@H]2CC(=O)N(C)[C@@H](CC(C)C)C(=O)N(C)C3(CC3)C(=O)N[C@H](Cc3ccccc3)COc3cnc4ccccc4c3C(=O)N2)cc(OC)c1 [Example 109, (3′S,7′S,13′R)-13′-benzyl-N-(3,5-dimethoxyphenethyl)-7′-isobutyl-6′,9′-dimethyl-1′,5′,8′,11′-tetraoxo-2′,3′,4′,5′,6′,7′,8′,9′,11′,12′,13′,14′-dodecahydro-1′H-spiro[cyclopropane-1,10′-[1]oxa[4,7,10,14]tetraazacycloheptadecino[17,16-c]quinoline]-3′-carboxamide]			231	321	
COc1nc(C)cc2c1C(=O)N[C@H](C(=O)NCCc1cc(C(F)(F)F)no1)CC(=O)N(C)[C@@H](CC(C)C)C(=O)N1CCCC[C@@H]1C(=O)N[C@H](Cc1ccccc1)CO2 [Example 568, (7S,11S,17aR,20R)-20-benzyl-11-isobutyl-4-methoxy-2,10-dimethyl-5,9,12,18-tetraoxo-N-(2-(3-(trifluoromethyl)isoxazol-5-yl)ethyl)-5,6,7,8,9,10,11,12,15,16,17,17a,18,19,20,21-hexadecahydro-14H-dipyrido[2,1-f:3′,4′-p][1]oxa[4,7,10,14]tetraazacycloheptadecine-7-carboxamide]	391	238			
COc1cccc2c1C(=O)N[C@H](C(=O)NCCc1ccccc1)CC(=O)N(C)[C@@H](CC(C)C)C(=O)N(CCC1CCCCC1)CC(=O)N[C@H](Cc1ccccc1)CO2 [Example 211, (3R,9S,13S)-3-benzyl-7-(2-cyclohexylethyl)-9-isobutyl-16-methoxy-10-methyl-5,8,11,15-tetraoxo-N-phenethyl-2,3,4,5,6,7,8,9,10,11,12,13,14,15-tetradecahydrobenzo[p][1]oxa[4,7,10,14]tetraazacycloheptadecine-13-carboxamide]			309	146	
Cc1cc(CCNC(=O)[C@@H]2CC(=O)N(C)[C@@H](CC(C)C)C(=O)N(C)[C@@H](C)C(=O)N[C@H](Cc3ccccc3)COc3ccc4cc(C)oc4c3C(=O)N2)on1 (mixture of isomers) [Example 576, (8R,11RS,14S,18S)-8-benzyl-14-isobutyl-2,11,12,15-tetramethyl-N-(2-(3-methylisoxazol-5-yl)ethyl)-10,13,16,20-tetraoxo-7,8,9,10,11,12,13,14,15,16,17,18,19,20-tetradecahydrobenzofuro[7,6-p][1]oxa[4,7,10,14]tetraazacycloheptadecine-18-carboxamide]	523	268			
COc1cccc(CCNC(=O)[C@@H]2CC(=O)N(C)[C@@H](CC(C)C)C(=O)N3CCN(CCO)C[C@@H]3C(=O)N[C@H](Cc3ccccc3)COc3ccc4ccccc4c3C(=O)N2)c1 [Example 416, (4aR,7R,18S,22S)-7-benzyl-3-(2-hydroxyethyl)-22-isobutyl-N-(3-methoxyphenethyl)-21-methyl-5,16,20,23-tetraoxo-2,3,4,4a,5,6,7,8,16,17,18,19,20,21,22,23-hexadecahydro-1H-naphtho[1,2-p]pyrazino[2,1-f][1]oxa[4,7,10,14]tetraazacycloheptadecine-18-carboxamide]	526	345			
COc1cccc2c1C(=O)N[C@H](C(=O)NCCC1CCC(C)(C)CO1)CC(=O)N(C)[C@@H](CC(C)C)C(=O)N(CCC1CCCCC1)CC(=O)N[C@H](Cc1ccccc1)CO2 (mixture of isomers) [Example 157, (3R,9S,13S)-3-benzyl-7-(2-cyclohexylethyl)-N-((RS)-2-(5,5-dimethyltetrahydro-2H-pyran-2-yl)ethyl)-9-isobutyl-16-methoxy-10-methyl-5,8,11,15-tetraoxo-2,3,4,5,6,7,8,9,10,11,12,13,14,15-tetradecahydrobenzo[p][1]oxa[4,7,10,14]tetraazacycloheptadecine-13-carboxamide]			395	121	

From patent US20240208992A1, “MACROCYCLES AS CFTR MODULATORS” (Idorsia Pharmaceuticals Ltd, priority 2021, published 2024)
